The TGI is the concentration giving total growth inhibition. Low values mean more potent growth arrest, high ones less potent growth arrest. As a reminder, the GI50 is the concentration that inhibits growth by half.

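Method: 48-hour compound exposure of cells in 96-well plates, five concentrations, linear interpolation of endpoints. GI50 is the concentration that inhibits growth by half. TGI is the concentration that stops growth completely.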

Here are results for 24 compounds from PubChem BioAssay (NCI).

Holding throughout (experiment): DTP human tumour cell line panel, 48 h
In assay [1] the test system is EKVX NSCLC.
In assay [2] the test system is SK-OV-3 ovarian.
Assay [3] relates to NCI-H460 lung.
Assay [4] relates to RXF 393 renal.
For assay [5], the system named is HCT-15 colon.
Assay [6] has as its system OVCAR-3 ovarian.
Assay [7] concerns COLO 205 colon.
Assay [8] deals with MALME-3M melanoma.
In assay [9] the test system is HCC-2998 colon.
Assay [10] has as its system SR leukemia.

Take `CC(=O)N1c2ccccc2Sc2cc(C(O)(C(F)(F)F)C(F)(F)F)ccc21`: the TGI in assay [1], in assay [2], in assay [3], in assay [4], in assay [5] and in [6] was greater than 10 µM in each case. Besides, the TGI in [7], in assay [8] and in [9] was greater than 10 µM in each case.

For the compound `COc1nc(C)cc2c(=O)n(-c3ccccc3)n(CCCN3CCN(c4ccc(Cl)cc4)CC3)c(=O)c12`, the GI50 was greater than 50 µM in assay [1]; 32.8 µM in [2]; 24.6 µM in [3]; greater than 50 µM in assay [10]; greater than 50 µM in assay [5]; 24.6 µM in assay [6]. Further, the GI50 in assay [7], in assay [8] and in [9] was greater than 50 µM throughout. Also, the TGI in assay [1], in assay [2], in [3], in assay [10], in assay [5] and in assay [6] was greater than 50 µM each time. Also, the total growth inhibition concentration (TGI) in assay [7], in [8] and in assay [9] was greater than 50 µM in each case.

For the compound `O=C1C(=O)N(c2ccc(Cl)c(Cl)c2)C(=O)C(=O)C1c1nc2ccccc2o1`, the TGI in assay [2] was greater than 100 µM; in assay [3], greater than 100 µM; in [10], 86 µM; in [5], greater than 100 µM; in assay [6], greater than 100 µM; in assay [7], greater than 100 µM. The TGI in [8] and in assay [9] was greater than 100 µM each time.

For `CCOC(=O)CC1=CSC2=NCCN12`, the TGI in assay [1], in assay [2], in assay [3], in [4], in assay [5] and in assay [6] was greater than 100 µM each time. The total growth inhibition concentration (TGI) in assay [7], in assay [8] and in assay [9] was greater than 100 µM each time.

Consider `N=C(N)CCCCCCCCC(=N)N`, for which the GI50 in assay [1] was 9.51 µM; in assay [2] it was 22.1 µM; in [3], 18.8 µM; in assay [4], greater than 100 µM; in [5], 47.2 µM; in [6], 34.1 µM. The GI50 in assay [7] is 7.86 µM; in assay [8], 39.9 µM; in [9], 28.5 µM. The TGI in assay [1], in assay [2], in assay [3], in [4], in [5] and in assay [6] was greater than 100 µM each time. The TGI in assay [7] is 20.9 µM; in assay [8] it was greater than 100 µM; in [9] it was greater than 100 µM.

On to `O=C(O)C12C3CCCC1C2CC3` (configuration not stated), for which the TGI in assay [1], in assay [2], in assay [3], in [4], in assay [10] and in [5] was greater than 100 µM in each case. Further, the TGI in [6], in assay [7] and in assay [8] was greater than 100 µM in each case.

In the case of `O=C1c2ccccc2-c2c1c1ccccc1c(=O)n2CCNCCNCCn1c2c(c3ccccc3c1=O)C(=O)c1ccccc1-2`, the GI50 was 10.6 µM in [1]; 12.8 µM in assay [2]; 0.0246 µM in assay [3]; 0.114 µM in [4]; 0.0545 µM in assay [5]; 1.02 µM in assay [6]. Also, the GI50 in assay [7] was 2.62 µM; in assay [8], 0.207 µM; in [9], 0.279 µM. For the same compound, the TGI in assay [1] came out at 27.2 µM; in [2], 36.2 µM; in assay [3], 7.59 µM; in [4], 10.3 µM; in assay [5], 1.31 µM; in assay [6] it was 8.98 µM. Also, the figures for the TGI in [7], in assay [8] and in assay [9] were greater than 60.8 µM, 16.2 µM and 14.9 µM, respectively.

With `C[C@H]1CCC/C=C/[C@@H]2C[C@H](O)C[C@H]2[C@H](O)[C@@H](S(=O)CCN(C)C)CC(=O)O1` (some centres not stated), the GI50 in assay [1] was 0.384 µM; in assay [2], 0.295 µM; in assay [3], 0.351 µM; in assay [4] it was 0.0542 µM; in assay [5], 0.363 µM; in assay [6] it was 0.115 µM. Also, the concentration for 50% growth inhibition (GI50) in assay [7] was 0.107 µM; in [8], 0.174 µM; in [9] it was 0.386 µM. For the same compound, the TGI in assay [2] is greater than 67.6 µM; in [3], greater than 100 µM; in assay [4] it was greater than 100 µM; in assay [5], greater than 57.9 µM; in assay [7], 0.876 µM; in assay [8] it was 0.42 µM. Moreover, the TGI in [9] was greater than 100 µM.

On to `CN(c1ccccc1)C(c1ccccc1)C(O)c1ccccc1` (configuration not stated), for which the TGI in [1] was 62.7 µM; in assay [2], 52.1 µM; in assay [3], 36.2 µM; in assay [10], 49.8 µM; in assay [5], 40.3 µM; in assay [6], 32 µM. Further, the TGI in [7] amounted to 30.1 µM; in [8], 31.4 µM; in [9], 38.8 µM.

As for `C=C(CN1CCc2ccccc2C1)c1ccc(C(=O)Nc2ccc(N)cc2)cc1`, the GI50 in assay [1] was 22.4 µM; in assay [2], 19.5 µM; in assay [3] it was 27.7 µM; in assay [4], 16.9 µM; in [5], 32.2 µM; in assay [6] it was 12.7 µM. Moreover, the GI50 in assay [7] was 22.7 µM; in assay [8] it was 18.3 µM; in [9] it was 14.6 µM. Also, the TGI was greater than 100 µM in [1]; 53.7 µM in assay [2]; greater than 100 µM in assay [3]; 91.4 µM in assay [4]; greater than 100 µM in assay [5]; 48 µM in assay [6]. Besides, the TGI in [7] turned out to be 60.6 µM; in assay [8] it was 61 µM; in assay [9], 43 µM.

For the compound `CC(C(=O)Oc1ccc2ccccc2c1-c1c(O)ccc2ccccc12)c1ccccc1` (configuration not stated), the TGI in [1] was found to be 37.3 µM; in [2], 29.6 µM; in [3], 27.6 µM; in assay [4] it was 22.9 µM; in assay [5], 27.2 µM; in assay [6], 26.6 µM. The TGI in assay [7] is 33.4 µM; in assay [8], 34.8 µM; in [9] it was 28.9 µM.

In the case of `ON=C1CCC(c2ccccc2)CC1` (configuration not stated), the TGI in [1], in assay [2], in assay [3], in assay [4], in assay [5] and in assay [6] was greater than 100 µM in each case. Besides, the TGI in [7], in assay [8] and in assay [9] was greater than 100 µM throughout.

For the compound `CCOC(=O)C(=O)Nc1c(N(CC)CC)n2ccccc2nc1=O`, the total growth inhibition concentration (TGI) in assay [1], in assay [2], in assay [3], in [10], in [5] and in [6] was greater than 100 µM in each case. The TGI in [7] and in assay [8] was greater than 100 µM throughout.

For the compound `COc1ccc(/C=C2/C[N+](C)(C)C/C(=C/c3ccc(OC)cc3)C2=O)cc1`, the concentration for total growth inhibition (TGI) in assay [1] is greater than 100 µM; in [2] it was greater than 100 µM; in assay [3] it was greater than 100 µM; in [4] it was greater than 100 µM; in [5], greater than 100 µM; in assay [6], 98.5 µM. The TGI came out at 40.8 µM in [7], 61.3 µM in [8] and 31 µM in assay [9].

As for `COC(=O)C(Nc1ccc(OC)cc1)c1ccccc1` (configuration not stated), the TGI in assay [1], in [3], in assay [10], in [5], in [6] and in [7] was greater than 100 µM throughout.

On to `C/C=C(\C)C(=O)O[C@H]1C=CC(=O)O[C@H]1CNC(=O)[C@H](C)O`, for which the GI50 in [1] was 26.2 µM; in assay [2], 52.1 µM; in assay [3], 28.2 µM; in assay [4], 19.3 µM; in [5], 15.6 µM; in assay [6], 17 µM. The GI50 is 12.6 µM in assay [7], 18.5 µM in assay [8] and 17.7 µM in assay [9]. The TGI in [1] was 67.4 µM; in [2], greater than 100 µM; in assay [3], 94.2 µM; in assay [4] it was 40.1 µM; in [5], 32 µM; in [6], 30.9 µM. The concentration for total growth inhibition (TGI) in [7] is 29.3 µM; in [8], 35.1 µM; in assay [9], 33.7 µM.

Consider `COC(=O)c1nc(NC#N)[nH]c(=O)c1C`, for which the TGI in assay [1], in assay [2], in assay [3], in assay [4], in [5] and in assay [6] was greater than 100 µM each time. The TGI in [7], in assay [8] and in [9] was greater than 100 µM in each case.

Consider `O=C(c1ccccc1)c1c(C(=O)c2ccccc2)c(-c2ccccc2)c2c(-c3ccccc3)sc(-c3ccccc3)c2c1-c1ccccc1`, for which the TGI in assay [1], in assay [2], in [3], in assay [4], in [5] and in assay [6] was greater than 100 µM throughout. The concentration for total growth inhibition (TGI) in assay [7], in assay [8] and in [9] was greater than 100 µM throughout.

Regarding `O=C1C(=O)c2ccccc2C(O)=C1C(CCc1ccccc1)C1=C(O)c2ccccc2C(=O)C1=O`, the TGI in assay [1], in assay [2], in assay [3], in [4], in assay [10] and in [5] was greater than 100 µM each time. Besides, the total growth inhibition concentration (TGI) in assay [6] is greater than 100 µM; in assay [7] it was greater than 100 µM; in assay [8], 29.7 µM.

`Cn1c(=O)c2[nH]c(CS(=O)(=O)Cc3nc4c([nH]3)c(=O)n(C)c(=O)n4C)nc2n(C)c1=O`: the TGI in [1], in assay [2], in [3], in assay [4], in assay [10] and in [5] was greater than 100 µM in each case. Further, the TGI in assay [6], in assay [7] and in assay [8] was greater than 100 µM in each case.

Consider `CCOC(=O)C(C)c1cc(C2(C)OCCO2)c(C)o1` (configuration not stated), for which the TGI in assay [1], in assay [2], in assay [3], in assay [4], in assay [5] and in [6] was greater than 100 µM in each case. Moreover, the concentration for total growth inhibition (TGI) in assay [7], in assay [8] and in [9] was greater than 100 µM throughout.

As for `Cc1c2cc[nH]c(=O)c2cc2c(=O)c3cnccc3[nH]c12`, the concentration for total growth inhibition (TGI) in assay [1], in assay [2], in assay [3], in assay [4], in [5] and in assay [6] was greater than 100 µM throughout. The TGI in assay [7], in [8] and in assay [9] was greater than 100 µM each time.

Take `COc1ccc(/C=C\c2cc(OC)c(OC)c(OC)c2)cc1OCC(=O)Nc1nc2ccc(C(F)(F)F)cc2s1`: the GI50 in assay [1] was 6.25 µM; in assay [2] it was 3.29 µM; in assay [3] it was 3.55 µM; in [10] it was 3.35 µM; in [5], 3.24 µM; in assay [6], 2.11 µM. Moreover, the figures for the GI50 in assay [7], in assay [8] and in assay [9] were 17.1 µM, greater than 100 µM and 4.23 µM, respectively. Besides, the TGI in assay [1] is greater than 100 µM; in assay [2], 17.2 µM; in assay [3], greater than 100 µM; in [10] it was greater than 100 µM; in assay [5] it was greater than 100 µM; in [6] it was 4.51 µM. Moreover, the figures for the TGI in assay [7], in [8] and in [9] were 68 µM, greater than 100 µM and greater than 100 µM, respectively.

As to `O=C1OC2(c3ccccc3Oc3ccccc32)c2ccccc21`, the TGI in assay [1], in [2], in assay [3], in assay [10], in assay [5] and in [6] was greater than 100 µM throughout. Also, the TGI in assay [7], in [8] and in assay [9] was greater than 100 µM in each case.
